The record followed here is patent publication US8431704B2, “Quinoline or isoquinoline substituted P2X7 antagonists” (Janssen Pharmaceutica NV, priority 2008, dated 2013).

This experiment deals with T1, hP2X7 (Homo sapiens, UniProt Q99572).
T1 construct: expressed in transfected cells; host or cells: 1321N1 astrocytoma cells
T1 sequence (Q99572 1-595): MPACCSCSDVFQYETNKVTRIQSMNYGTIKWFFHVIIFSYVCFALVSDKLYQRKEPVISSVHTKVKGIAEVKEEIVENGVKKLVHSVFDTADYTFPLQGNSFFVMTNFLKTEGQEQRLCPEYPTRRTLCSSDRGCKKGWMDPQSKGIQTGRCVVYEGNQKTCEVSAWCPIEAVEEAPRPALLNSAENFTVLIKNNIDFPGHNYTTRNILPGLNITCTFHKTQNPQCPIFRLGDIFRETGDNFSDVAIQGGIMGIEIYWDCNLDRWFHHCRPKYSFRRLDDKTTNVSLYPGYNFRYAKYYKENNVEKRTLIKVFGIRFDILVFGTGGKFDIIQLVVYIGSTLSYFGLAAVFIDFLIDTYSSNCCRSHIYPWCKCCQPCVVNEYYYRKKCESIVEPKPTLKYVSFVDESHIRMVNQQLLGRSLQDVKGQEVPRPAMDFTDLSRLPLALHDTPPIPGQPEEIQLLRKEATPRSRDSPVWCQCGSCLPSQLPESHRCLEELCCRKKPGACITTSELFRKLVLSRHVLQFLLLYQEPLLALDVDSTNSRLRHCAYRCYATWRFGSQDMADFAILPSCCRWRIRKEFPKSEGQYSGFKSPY
Description: P2X7 antagonism: ligand-induced Ca2+ flux in 1321N1 astrocytoma cells overexpressing hP2X7. The experiment is classed as cell-based. The note with it: pIC50 = -log(IC50), read-out: hP2RX7pIC50 (mean pIC50 values) (converted). Here is the method:
Extracellular binding of ATP to P2X7 that is expressed in the cell-membrane opens the ligand gated cation channel and allows Ca^2+ entry into the cell. This ligand-induced Ca^2+ flux was measured in 1321N1 astrocytoma cells overexpressing hP2X7 for the compounds of the present invention.
The calcium assay kit used (Molecular Devices, R8090), provides a Ca^2+ sensitive dye together with a quenching dye. However, no specifications are given by the manufacturer. The kit most likely consists of a membrane permeable acetoxymethyl (AM) ester of a fluorescent Ca^2+ indicator, such as fluo-4 or fluo-3. Upon cellular uptake, the AM esters get cleaved by esterases, liberating the Ca^2+-sensitive dye which can then bind calcium. The dyes have an absorption spectrum compatible with excitation at 488 nm by argon laser sources and a large fluorescence intensity increase in response to Ca^2+ binding without an accompanying spectral shift. Emission wavelength is in the range of 510-560 nm.
The fluorescence, and thus the changes in intracellular [Ca^2+] in the 1321N1 cells was monitored in time before and after addition of the agonist. The effect of the antagonist was measured as % control and as IC50.

On to `O=C(NCC(c1cnc(C(F)(F)F)nc1)N1CCC(F)(F)CC1)c1cccc2nc(NCCCO)ccc12` (stereo not shown) [Compound 40], for which the IC50 was 34.7 nM. On to `O=C(NCC(c1cnc(C(F)(F)F)nc1)N1CCCOCC1)c1cccc2nc(N3CCNCC3)ccc12` (stereo not shown) [Compound 128], for which the IC50 was 46.8 nM. The figure for `CCc1ncc(C(CNC(=O)c2cccc3nc(NCC4CC4)ccc23)N2CCOCC2)cn1` (stereo not shown) [Compound 296] is 123 nM. As to `CCc1ncc(C(CNC(=O)c2cccc3nc(N4CCOCC4)ccc23)N2CCOCC2)cn1` (stereo not shown) [Compound 311], the IC50 is 112 nM. Take `O=C(NCC(c1cnc(C(F)(F)F)nc1)N1CCC(F)(F)CC1)c1cccc2ncccc12` (single isomer, unassigned) [Compound 47]: the IC50 is 38 nM.

Take `COc1ccc2c(C(=O)NCC(c3cnc(C(F)(F)F)nc3)N3CCC(F)(F)CC3)cccc2n1` (stereo not shown) [Compound 41]: the IC50 was 45.7 nM. For the molecule `O=C(NCC(c1ccc(C(F)(F)F)nc1)N1CCC(F)(F)CC1)c1cccc2ncccc12` (single isomer, unassigned) [Compound 11], the IC50 was 52.5 nM. For `CC(C)C1CCN(c2ccc3c(C(=O)NCC(c4cnc(C(F)(F)F)nc4)N4CCOCC4)cccc3n2)CC1` (stereo not shown) [Compound 196], the IC50 was 195 nM. Next, `CC(=O)N1CCN(c2ncc(C(CNC(=O)c3cccc4nc(N5CCCC5)ccc34)N3CCC(F)(F)CC3)cn2)CC1` (stereo not shown) [Compound 222]: 66.1 nM. The figure for `Nc1ncc(C(CNC(=O)c2cccc3nc(NCC4CC4)ccc23)N2CCC(F)(F)CC2)cn1` (stereo not shown) [Compound 267] is 115 nM; for `CN(C)c1ncc(C(CNC(=O)c2cccc3nc(NCC4CC4)ccc23)N2CCC(F)(F)CC2)cn1` (stereo not shown) [Compound 266] it is 50.1 nM; for `CC(C)Oc1ncc(C(CNC(=O)c2cccc3nc(NC4CC4)ccc23)N2CCC(F)(F)CC2)cn1` (stereo not shown) [Compound 236] it is 34.7 nM.

Turning to `Cc1ncc(C(CNC(=O)c2cccc3nc(N4CCN(C(C)C)CC4)ccc23)N2CCOCC2)cn1` (stereo not shown) [Compound 118], the IC50 was 162 nM. With `CC(C)Oc1ncc(C(CNC(=O)c2cccc3nc(NC4CC4)ccc23)N2CCOCC2)cn1` (stereo not shown) [Compound 242], the IC50 was 115 nM.

Consider `O=C(NCC(c1cnc(C(F)(F)F)nc1)N1CCOCC1)c1cccc2nc(NCC3CCCC3)ccc12` (stereo not shown) [Compound 275], for which the IC50 was 70.8 nM. As to `O=C(NCC(c1cnc(C(F)(F)F)nc1)N1CCOCC1)c1cccc2nc(N3CCC(O)C3)ccc12` (stereo not shown) [Compound 172], the IC50 was 145 nM.

For `O=C(NCC(c1cnc(N2CCCC2)nc1)N1CCC(F)(F)CC1)c1cccc2nc(NC3CC3)ccc12` (stereo not shown) [Compound 190], the IC50 is 77.6 nM. Consider `CC(C)c1ncc(C(CNC(=O)c2cccc3nc(N4CCCC4)ccc23)N2CCC(F)(F)CC2)cn1` (stereo not shown) [Compound 308], for which the IC50 is 49 nM. As for `CN1CCN(c2ccc3c(C(=O)NCC(c4cnc(C(F)(F)F)nc4)N4CCOCC4)cccc3n2)CC1` (stereo not shown) [Compound 198], the IC50 is 77.6 nM. Regarding `CC1CCCCN1C(CNC(=O)c1cccc2ncccc12)c1cnc(C(F)(F)F)nc1` (stereo not shown) [Compound 73], the IC50 is 50.1 nM. For `O=C(NCC(c1cnc(C(F)(F)F)nc1)N1CCOCC1)c1cccc2nc(N3CCCCC3)ccc12` (stereo not shown) [Compound 163], the IC50 was 37.2 nM. For the molecule `O=C(NCC(c1cnc(C(F)(F)F)nc1)N1CCOCC1)c1cccc2nc(N3CCC(F)(F)CC3)ccc12` (stereo not shown) [Compound 177], the IC50 is 47.9 nM. The figure for `O=C(NCC(c1cnc(C(F)(F)F)nc1)N1CCCC1)c1cccc2ncccc12` (stereo not shown) [Compound 45] is 955 nM. Turning to `CC(C)OCCCNc1ccc2c(C(=O)NCC(c3cnc(C(F)(F)F)nc3)N3CCOCC3)cccc2n1` (stereo not shown) [Compound 182], the IC50 is 112 nM. The figure for `CC(C)CN1CCN(c2ccc3c(C(=O)NCC(c4cnc(C(F)(F)F)nc4)N4CCOCC4)cccc3n2)CC1` (stereo not shown) [Compound 280] is 95.5 nM; for `CCN(CC)c1ccc2c(C(=O)NCC(c3cnc(C(F)(F)F)nc3)N3CCOCC3)cccc2n1` (stereo not shown) [Compound 279] it is 77.6 nM. For the molecule `O=C(NCC(c1cnc(C(F)(F)F)nc1)N1CCOCC1)c1cccc2nc(NC3CCCC3)ccc12` (stereo not shown) [Compound 179], the IC50 was 89.1 nM. As to `O=C(NCC(c1cnc(OC2CCC2)nc1)N1CCC(F)(F)CC1)c1cccc2nc(NCC3CC3)ccc12` (stereo not shown) [Compound 294], the IC50 is 67.6 nM. Consider `O=C(NCC(c1cnc(C2CCCC2)nc1)N1CCC(F)(F)CC1)c1cccc2nc(NCC3CC3)ccc12` (stereo not shown) [Compound 293], for which the IC50 was 105 nM. For the molecule `CC(C)c1ncc(C(CNC(=O)c2cccc3nc(NCC4CC4)ccc23)N2CCC(F)(F)CC2)cn1` (stereo not shown) [Compound 258], the IC50 was 44.7 nM. With `CC1CN(c2ccc3c(C(=O)NCC(c4cnc(C(F)(F)F)nc4)N4CCOCC4)cccc3n2)CCN1` (stereo not shown) [Compound 271], the IC50 was 107 nM. Take `O=C(NCC(c1ccc(C(F)(F)F)nc1)N1CCOCC1)c1cccc2ncccc12` (stereo not shown) [Compound 31]: the IC50 was 107 nM. For `CCOc1ncc(C(CNC(=O)c2cccc3nc(N4CCCC4)ccc23)N2CCOCC2)cn1` (stereo not shown) [Compound 303], the IC50 was 52.5 nM. Next, `O=C(NCC(c1cnc(O)nc1)N1CCC(F)(F)CC1)c1cccc2nc(N3CCOCC3)ccc12` (stereo not shown) [Compound 144]: 1050 nM; `O=C(NCC(c1cnc(N2CCNCC2)nc1)N1CCC(F)(F)CC1)c1cccc2nc(N3CCCC3)ccc12` (stereo not shown) [Compound 301]: 166 nM; `O=C(NCC(c1cnc(N2CCNCC2)nc1)N1CCC(F)(F)CC1)c1cccc2nc(NCC3CC3)ccc12` (stereo not shown) [Compound 223]: 195 nM. The figure for `O=C(NCC(c1cnc(C(F)(F)F)nc1)N1CCCCCC1)c1cccc2nc(N3CCNCC3)ccc12` (stereo not shown) [Compound 109] is 22.4 nM; for `CC(C)c1ncc(C(CNC(=O)c2cccc3nc(NCC4CC4)ccc23)N2CCOCC2)cn1` (stereo not shown) [Compound 244] it is 79.4 nM; for `O=C(NCC(c1cnc(N2CCCC2)nc1)N1CCOCC1)c1cccc2nc(NC3CC3)ccc12` (stereo not shown) [Compound 259] it is 97.7 nM. For `CCc1ncc(C(CNC(=O)c2cccc3nc(NCC4CC4)ccc23)N2CCC(F)(F)CC2)cn1` (stereo not shown) [Compound 217], the IC50 is 47.9 nM.

Turning to `CCOc1ncc(C(CNC(=O)c2cccc3nc(N4CCOCC4)ccc23)N2CCC(F)(F)CC2)cn1` (stereo not shown) [Compound 253], the IC50 is 36.3 nM. With `CC(C)c1ncc(C(CNC(=O)c2cccc3nc(N4CCN(C(C)C)CC4)ccc23)N2CCC(F)(F)CC2)cn1` (stereo not shown) [Compound 299], the IC50 is 110 nM. Consider `O=C(NCC(c1cncnc1)N1CCC(F)(F)CC1)c1cccc2nc(NC3CC3)ccc12` (stereo not shown) [Compound 256], for which the IC50 is 44.7 nM.

In the case of `O=C(NCC(c1cnc(-c2ccccc2)nc1)N1CCC(F)(F)CC1)c1cccc2nc(NC3CC3)ccc12` (stereo not shown) [Compound 193], the IC50 is 61.7 nM.

As for `CN(C)c1ncc(C(CNC(=O)c2cccc3nc(NCC4CC4)ccc23)N2CCOCC2)cn1` (stereo not shown) [Compound 245], the IC50 is 170 nM. For the molecule `CN(C)c1ncc(C(CNC(=O)c2cccc3nc(NC4CC4)ccc23)N2CCC(F)(F)CC2)cn1` (stereo not shown) [Compound 195], the IC50 was 72.4 nM. Next, `COc1ncc(C(CNC(=O)c2cccc3nc(NC4CC4)ccc23)N2CCC(F)(F)CC2)cn1` (stereo not shown) [Compound 192]: 55 nM; `CC(C)N1CCN(c2ccc3c(C(=O)NCC(c4cnc(N5CCCC5)nc4)N4CCC(F)(F)CC4)cccc3n2)CC1` (stereo not shown) [Compound 215]: 174 nM. Consider `CCOc1ncc(C(CNC(=O)c2cccc3nc(NCC4CC4)ccc23)N2CCOCC2)cn1` (stereo not shown) [Compound 243], for which the IC50 was 50.1 nM. With `CC(C)c1ncc(C(CNC(=O)c2cccc3nc(N4CCN(C(C)C)CC4)ccc23)N2CCOCC2)cn1` (stereo not shown) [Compound 288], the IC50 is 135 nM.

As for `O=C(NCC(c1cnc(N2CCNCC2)nc1)N1CCC(F)(F)CC1)c1cccc2nc(N3CCOCC3)ccc12` (stereo not shown) [Compound 287], the IC50 is 105 nM.

For the molecule `Nc1ncc(C(CNC(=O)c2cccc3nc(NC4CC4)ccc23)N2CCC(F)(F)CC2)cn1` (stereo not shown) [Compound 194], the IC50 was 178 nM. With `CC(C)(C)C1CCN(c2ccc3c(C(=O)NCC(c4cnc(C(F)(F)F)nc4)N4CCOCC4)cccc3n2)CC1` (stereo not shown) [Compound 276], the IC50 was 813 nM. `CC(C)Oc1ncc(C(CNC(=O)c2cccc3nc(N4CCN(C(C)C)CC4)ccc23)N2CCC(F)(F)CC2)cn1` (stereo not shown) [Compound 306]: the IC50 was 46.8 nM. On to `CC(C)N1CCN(c2ccc3c(C(=O)NCC(c4cnc(-c5ccccc5)nc4)N4CCC(F)(F)CC4)cccc3n2)CC1` (stereo not shown) [Compound 201], for which the IC50 is 115 nM.
